Data on three compounds can be found in patent US8927533B2, “Thio derivatives bearing lactams as potent HDAC inhibitors and their uses as medicaments” (SIGMA-TAU Industrie Farmaceutiche Riunite S.p.A., priority 2011, dated 2015).

In one series the target is T1, HDAC6 (Homo sapiens, UniProt Q9UBN7).
T1 sequence (Q9UBN7 1-1215): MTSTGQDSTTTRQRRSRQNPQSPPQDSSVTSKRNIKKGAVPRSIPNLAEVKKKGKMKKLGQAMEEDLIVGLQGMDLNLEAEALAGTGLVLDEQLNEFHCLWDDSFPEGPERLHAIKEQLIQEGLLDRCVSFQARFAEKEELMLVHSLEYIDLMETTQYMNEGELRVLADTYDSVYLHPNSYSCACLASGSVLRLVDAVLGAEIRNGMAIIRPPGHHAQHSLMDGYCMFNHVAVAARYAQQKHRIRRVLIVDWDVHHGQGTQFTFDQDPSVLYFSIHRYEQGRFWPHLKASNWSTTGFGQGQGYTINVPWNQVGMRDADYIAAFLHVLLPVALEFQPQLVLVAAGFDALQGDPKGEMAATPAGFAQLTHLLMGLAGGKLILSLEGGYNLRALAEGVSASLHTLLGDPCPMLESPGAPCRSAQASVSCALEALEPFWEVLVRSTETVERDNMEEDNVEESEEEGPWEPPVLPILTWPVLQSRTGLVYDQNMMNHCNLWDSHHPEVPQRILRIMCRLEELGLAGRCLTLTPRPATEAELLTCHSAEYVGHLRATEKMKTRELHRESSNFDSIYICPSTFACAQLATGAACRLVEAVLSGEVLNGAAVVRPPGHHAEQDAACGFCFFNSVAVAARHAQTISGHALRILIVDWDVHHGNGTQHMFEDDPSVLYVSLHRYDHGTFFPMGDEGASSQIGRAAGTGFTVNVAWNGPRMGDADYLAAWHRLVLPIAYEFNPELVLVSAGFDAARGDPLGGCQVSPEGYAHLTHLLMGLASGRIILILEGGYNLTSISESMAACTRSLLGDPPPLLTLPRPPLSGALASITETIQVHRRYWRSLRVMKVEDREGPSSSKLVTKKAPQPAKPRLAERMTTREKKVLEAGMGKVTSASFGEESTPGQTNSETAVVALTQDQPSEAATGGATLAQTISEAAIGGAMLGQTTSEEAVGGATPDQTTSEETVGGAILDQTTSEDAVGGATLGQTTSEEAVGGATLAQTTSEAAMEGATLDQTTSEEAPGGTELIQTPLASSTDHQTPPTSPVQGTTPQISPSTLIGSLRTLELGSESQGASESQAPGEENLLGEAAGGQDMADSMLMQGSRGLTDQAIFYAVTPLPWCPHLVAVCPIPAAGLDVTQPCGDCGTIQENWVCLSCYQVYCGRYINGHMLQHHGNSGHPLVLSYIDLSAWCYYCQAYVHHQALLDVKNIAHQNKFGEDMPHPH
As to the kind of experiment: HDAC enzymatic assay, HDAC6. It counts as biochemical. How it is done:
(§1) Each compound was dissolved in DMSO, and progressively diluted solutions were used for testing. […] Upon its deacetylation, the fluorophore was released given rise to fluorescence emission which was detected by a fluorimeter, and the IC50 values of the compounds were determined by analyzing dose-response inhibition curves.

For series [1], the system named is eleven HDAC isolated human isoforms. As to the kind of experiment: HDAC profiling, whole isoform panel. It counts as biochemical. How it is done: as §1
For series [2], the system named is NCI-H460 non-small cell lung carcinoma cells. Kind of series: Cytotoxicity, sulphorodamine B, H460. As to conditions: Homo sapiens, NCI-H460, read-out: H460 cell line IC50 (μM).
Procedure: (§5) The plates were incubated for 24 h at 37° C., after which they were washed 3 times by removal of the supernatant and addition of PBS. The plates were then incubated for further 48 h at 37° C. 200 μl PBS and 50 μl of cold 80% TCA were added and the plates were incubated on ice for at least 1 h. TCA was removed and the plates were washed 3 times by immersion in distilled-water. They were then dried on paper at 40° C. for 5 min. 200 μl of 0.4% sulphorodamine B in 1% acetic acid were added. The plates were incubated at room temperature for further 30 min. Sulphorodamine B was removed, and the plates were washed 3 times by immersion in 1% acetic acid and were dried on paper and at 40° C. for 5 min. Then 200 μl Tris 10 mM were added. The plates were kept under magnetic stirring for 20 min. Cell survival was determined by means of optical density by a Multiskan spectrofluorimeter at 540 nm. The amount of cells killed was calculated as the percentage decrease in sulphorodamine B binding compared to control cultures.
A further series has as its system HUT78 T-Lymphoma cells. As to the kind of experiment: Cytotoxicity extended panel, HUT78. It counts as cell-based. Conditions: Homo sapiens, suspension cells, 72 h. The protocol:
(§2) Cells were seeded in 96-well tissue culture plates at approximately 10% confluence. They were allowed to attach and recover for at least 24 h. Compounds of the present invention were then added to each well at various concentrations in order to define cell survival inhibition IC50. The plates were incubated for 72 h at 37° C., after which time they were washed 3 times by removal of the supernatant. 200 μl of PBS and 50 μl of cold 80% TCA were added and the plates were incubated on ice for at least 1 h. TCA was removed and the plates were washed 3 times by immersion in distilled water. They were then dried on paper at 40° C. for 5 min. 200 μl of 0.4% sulphorodamine B in 1% acetic acid were added. The plates were incubated at room temperature for further 30 min. Sulphorodamine B was removed, and the plates were washed 3 times by immersion in 1% acetic acid and were dried on paper at 40° C. for 5 min. Then 200 μl Tris 10 mM were added. The plates were kept under magnetic stirring for 20 min. Cell survival was determined by means of optical density by a Multiskan spectrofluorimeter at 540 nm. The amount of cells killed was calculated as the percentage decrease in sulphorodamine B binding compared to control cultures. The IC50 values (reported in Table 5) were calculated with the “ALLFIT” program. […]

Series [3] concerns α-tubulin acetylation in NCI-H460 cells. Kind of series: Tubulin acetylation, Western Blot. As to conditions: cytoplasmic extracts.
Procedure: (§6) The experiments were conducted using ECL Plus Western blotting detection reagents (from Amersham Biosciences) and the intensity of the bands were analyzed by using a computed phosphoimage analyzer (PhosphoImager; Molecular Dynamics, Sunnyvale, Calif., U.S.A.).
Series [4] concerns MDA-MB436 breast tumour cells. Kind of series: Cytotoxicity extended panel, MDA-MB436. Conditions: Homo sapiens, MDA-MB-436, cell survival, 72 h, sulphorodamine B. It counts as cell-based. How it is done:
(§3) Cells were seeded in 96-well tissue culture plates at approximately 10% confluence. They were allowed to attach and recover for at least 24 h. Compounds of the present invention were then added to each well at various concentrations in order to define cell survival inhibition IC50. The plates were incubated for 72 h at 37° C., after which time they were washed 3 times by removal of the supernatant. 200 μl of PBS and 50 μl of cold 80% TCA were added and the plates were incubated on ice for at least 1 h. TCA was removed and the plates were washed 3 times by immersion in distilled water. They were then dried on paper at 40° C. for 5 min. 200 μl of 0.4% sulphorodamine B in 1% acetic acid were added. The plates were incubated at room temperature for further 30 min. Sulphorodamine B was removed, and the plates were washed 3 times by immersion in 1% acetic acid and were dried on paper at 40° C. for 5 min. Then 200 μl Tris 10 mM were added. The plates were kept under magnetic stirring for 20 min. Cell survival was determined by means of optical density by a Multiskan spectrofluorimeter at 540 nm. The amount of cells killed was calculated as the percentage decrease in sulphorodamine B binding compared to control cultures. The IC50 values (reported in Table 5) were calculated with the “ALLFIT” program.

The subject of series [5] is A2780 ovarian tumour cells. Kind of series: Cytotoxicity extended panel, A2780. It counts as cell-based. As to conditions: Homo sapiens, cell survival, 72 h, sulphorodamine B. How it is done: as §3
Series [6] relates to HCT116 colon cancer cells. As to the kind of experiment: Cytotoxicity, sulphorodamine B, HCT116. Conditions: Homo sapiens, HCT-116, read-out: HCT116 cell line IC50 (μM).
Procedure: as §5
Series [7] relates to MV4-11 acute monocytic leukemia cells. Kind of series: Cytotoxicity extended panel, MV4-11. It counts as cell-based. As to conditions: Homo sapiens, suspension cells, 72 h. The protocol: as §2
Series [8] has as its system HCT116 colon cancer cells. Kind of series: Antitumour activity, HCT116 xenograft (Example 48). It counts as in vivo, CD1 nude mice. Conditions: qd×5/w×3w.
Procedure: (§7) The tested derivatives were administered as a suspension in PBS/DMSO/Cremophor EL (Sigma): 85/10/5 (volume percentage). The antitumour activity was determined by measuring tumour diameters with a Vernier calliper according to the Formula TV=d^2×D/2
(§8) where d and D are the shortest and longest diameters, respectively.
(§9) When tumours reached a volume of about 1000 mm^3, mice were sacrificed by cervical dislocation. The efficacy of the drug was assessed as the tumour volume inhibition according to the Formula reported underneath:
(§10) Body weight recording was carried out to evaluate body weight loss as calculated in the equation underneath:
(§11) Wherein BW day x corresponds to the mean weight at day x of the experiment meanwhile BW day 1 corresponds to the mean weight at the first day of the experiment.
In series [9] the test system is histone H4 acetylation in NCI-H460 cells. As to the kind of experiment: Histone H4 acetylation, Western Blot.
Procedure: as §6
Series [10] has as its system K562 chronic myeloid leukemia cells. Kind of series: Cytotoxicity extended panel, K562. It counts as cell-based. As to conditions: Homo sapiens, suspension cells, 72 h. The protocol:
as §2

The subject of a further series is U937 leukemia cells. Kind of series: Cytotoxicity extended panel, U937. It counts as cell-based. As to conditions: Homo sapiens, U-937, suspension cells, 72 h. The protocol: as §2
Series [11] deals with MDA-MB231 breast tumour cells. Kind of series: Cytotoxicity extended panel, MDA-MB231. As to conditions: Homo sapiens, MDA-MB-231, cell survival, 72 h, sulphorodamine B. It counts as cell-based. The protocol: as §3
Series [12] has as its system SKOV-3 ovarian tumour cells. Kind of series: Cytotoxicity extended panel, SKOV-3. As to conditions: Homo sapiens, SK-OV-3, cell survival, 72 h, sulphorodamine B. It counts as cell-based. The protocol: as §3
Series [13] relates to H929 multiple myeloma cells. Kind of series: Antitumour activity, H929 xenograft (Example 48). It counts as in vivo, CD1 nude mice. Conditions: qd×5/w×3w.
Procedure: as §7, §8, §9, §10, §11
Series [14] relates to MCF-7 breast tumour cells. As to the kind of experiment: Cytotoxicity extended panel, MCF-7. It counts as cell-based. As to conditions: Homo sapiens, MCF7, cell survival, 72 h, sulphorodamine B. The protocol:
as §3

Series [15] concerns HSC3 head and neck tumour cells. Kind of series: Cytotoxicity extended panel, HSC3. Conditions: Homo sapiens, HSC-3, cell survival, 72 h, sulphorodamine B. It counts as cell-based. How it is done:
as §3

For the next series, the system named is NCI-H460 NSCLC. Kind of series: Antitumour activity, NCI-H460 xenograft (Example 48). As to conditions: qd×5/w×3w.
In another series the test system is HCT116 colon cancer. As to the kind of experiment: Antitumour activity, HCT116 xenograft, oral (Example 49). It counts as in vivo, mice. Conditions: 100 mg/10 ml/kg p.o., PEG200/DMSO/Cremophor EL. The source says:
(§4) The experiment of example 48 was repeated with another compound on mice animal model developing HCT116 colon cancer as described above or A2780 ovarian cancer, and administering the drugs solubilised in orally in PEG200/DMSO/Cremophor EL (Sigma): 85/10/5 (volume percentage).

A further series concerns A2780 ovarian cancer. As to the kind of experiment: Antitumour activity, A2780 xenograft, oral (Example 49). It counts as in vivo, mice. As to conditions: 100 mg/10 ml/kg p.o., PEG200/DMSO/Cremophor EL.
Text: as §4

Procedure for NCI-H460 NSCLC: as §7, §8, §9, §10, §11

As to `CC(C)(C)OC(=O)N[C@@H](CCCCCS)C(=O)NC1CCCC1` [((S)-1-cyclopentylcarbamoyl-6-mercapto-hexyl)-carbamic acid tert-butyl ester, reference compound], on HDAC6, the “activity on HDAC6 compared with the described compounds” value was “much lower activity on HDAC6 than most of the herein described compounds”. Moreover, in [1], the “HDAC isoform selectivity profile” value is “confirmed its HDAC6 selectivity profile”.
Consider `CC(=O)SCCCCC[C@H](NC(=O)[C@@H]1CCCC(=O)N1)C(=O)Nc1ccccc1` [Example 14, Thioacetic acid S—{(S)-6-[((S)-6-oxo-piperidine-2-carbonyl)-amino]-6-phenylcarbamoyl-hexyl}ester], for which the IC50 in series [2] is below 0.5 µM; in the series on HUT78 T-Lymphoma cells, 0.48 µM; in series [4] it was 0.18 µM; in series [5] it was 0.062 µM; in [6], below 0.5 µM; in series [7] it was 0.19 µM. Moreover, the IC50 in [10] is 0.19 µM; with U937 leukemia cells, 0.049 µM; in series [11] it was 0.23 µM; in series [12], 0.38 µM; in series [14], 0.19 µM; in series [15], 0.77 µM. In series [3], the “hyper-acetylation of cytoplasmatic α-tubulin” value is listed as “comparable to that observed with the reference compound SAHA”. The BWL % in [8] (50 mg/10 ml/kg i.p.) came out at 3%; in series [13] (50 mg/10 ml/kg i.p.), 11%; in the series on NCI-H460 NSCLC (50 mg/10 ml/kg i.p.), 2%. The TVI % in series [8] (50 mg/10 ml/kg i.p.) is given as 44%; in [13] (50 mg/10 ml/kg i.p.) it was 30%; with NCI-H460 NSCLC (50 mg/10 ml/kg i.p.), 36%. Moreover, in [9] (Homo sapiens, NCI-H460, read-out: EC50 μM H4 acetylation), the EC50 was determined as 0.1 µM. Further, in [9] (NCI-H460 cells, Western Blot, 'as low as'), the “concentration inducing H4 hyper-acetylation” value is 100 nM.
Regarding `O=C(CCCCCCC(=O)Nc1ccccc1)NO` [SAHA, suberoylanilide hydroxamic acid, reference compound], the BWL % in series [8] (100 mg/10 ml/kg p.o.) is given as 0%; with HCT116 colon cancer, 1%; in the series on A2780 ovarian cancer it was 4%; in series [13] (100 mg/10 ml/kg i.p.), 3%; in the series on NCI-H460 NSCLC (100 mg/10 ml/kg i.p.) it was 0%. For the same compound, the TVI % in series [8] (100 mg/10 ml/kg p.o.) was determined as 47%; in the series on HCT116 colon cancer, 32%; in the series on A2780 ovarian cancer, 53%; in series [13] (100 mg/10 ml/kg i.p.) it was 21%; with NCI-H460 NSCLC (100 mg/10 ml/kg i.p.) it was 27%. Besides, in series [10], the IC50 is 0.13 µM.
